{"source": "patent US7371864B2", "about": "“Crystalline forms of a factor Xa inhibitor” (Bristol-Myers Squibb Company, priority 2004, dated 2008)", "key": {"[1]": {"experiment": "Moisture sorption isotherms (VTI SGA-100 Symmetric Vapor Analyzer)", "type": "physicochemical", "conditions": "25° C., 4-95% RH", "description": "Moisture sorption isotherms for N-1 were collected in a VTI SGA-100 Symmetric Vapor Analyzer using about 10 mg sample. The sample was dried at 60° C. until the loss rate of 0.0005 wt %/min was obtained for 10 minutes. The sample was tested at 25° C. and 4, 5, 15, 25, 35, 45, 50, 65, 75, 85, and 95% RH. Equilibration at each RH was reached when the rate of 0.0003 wt %/min for 35 minutes or a maximum of 600 minutes was achieved."}, "[2]": {"experiment": "Relative thermodynamic stability of crystalline forms", "type": "physicochemical"}}}
{"smiles": "COc1ccc(-n2nc(C(C)(C)O)c3c2C(=O)N(c2ccc(-n4ccccc4=O)cc2)CC3)cc1", "note": "[Form N-1, 3-(1-hydroxy-1-methyl-ethyl)-1-(4-methoxy-phenyl)-6-[4-(2-oxo-2H-pyridin-1-yl)-phenyl]-1,4,5,6-tetrahydro-pyrazolo[3,4-c]pyridin-7-one]", "values": [{"measurement": "hygroscopicity from moisture sorption isotherms", "setting": "[1]", "result": "essentially non-hygroscopic"}, {"measurement": "stability relative to Form N-3 (monotropic relationship)", "setting": "[2]; all temperatures, inferred from Form N-3 melting ˜40° C. lower than Form N-1", "result": "more stable at all temperatures"}, {"measurement": "thermodynamic stability relative to other crystalline forms", "setting": "[2]; room temperature", "result": "thermodynamically more stable form"}]}
